Data as given in paper PMC12093506, “Synthesis, characterization, and in vitro and in silico α-glucosidase inhibitory evolution of novel N′-(2-cyclopentyl-2-phenylacetyl)cinnamohydrazide derivatives” (RSC Advances, 2025).
Like-named read-outs stand apart in the source and are kept apart here. Each block holds one molecule with its values, some of them ahead of it.

What was measured:
[1] = target: T1, α-glucosidase (maltase) enzyme from Yeast (Saccharomyces cerevisiae, UniProt P53341); experiment: biochemical; format: biochemical
T1 construct: purchased Sisco Research Laboratories Pvt; Ltd
Description: The test compounds were evaluated for their α-glucosidase inhibitory activity following the methodology outlined by Pistia et al.[62] and Bhatia et al.[63] […] The compounds at varied concentrations ranging from 50 to 200 μg mL^−1 were combined with 50 μL of α-glucosidase (maltase) enzyme solution (1 U mL^−1) from Yeast (Sisco Research Laboratories Pvt. Ltd). The mixer was placed at a temperature of 37 °C for duration of 15 minutes, after the addition of 0.1 M phosphate buffer (pH 6.8). Afterward, 25 μl of substrate buffer was introduced into the system to initiate the reaction, and the incubation was prolonged at a temperature of 37 °C for a length of 15 minutes. Finally, the reaction was stopped by adding 50 μl of a 0.2 M sodium carbonate solution, thereby terminating the processes. The measurement was determined at a wavelength of 450 nm. […] The measurement of enzyme activity was carried out as follows.
The formula for calculating the percentage is (ODblank − ODsample) divided by ODblank, multiplied by 100.
A unit of enzyme may be accurately defined as the amount of α-glucosidase enzyme required to generate one micromole of p-nitrophenol (product) from p-nitrophenyl-α-D-glucopyranoside (substrate) for a time of one minute. The IC50, representing the concentration required to inhibit 50% of the enzyme activity, was determined by fitting a regression equation to a graph that plotted concentration (varying from 50–200 μg mL^−1) on the X-axis and percentage of inhibition on the Y-axis for various fractions and extracts.

α-glucosidase = conditions: cited from earlier work
[2] = yeast α-glucosidase (maltase) 1 U mL^−1, phosphate buffer pH 6.8, 37 °C
[3] = yeast α-glucosidase (maltase) 1 U mL^−1, phosphate buffer pH 6.8, 37 °C, read-out: IC50 (α-glucosidase inhibition)
[4] = hydrazine-type compounds, Fig. 1
[5] = compounds with phenyl rings, Fig. 1

T1 sequence (P53341 whole entry): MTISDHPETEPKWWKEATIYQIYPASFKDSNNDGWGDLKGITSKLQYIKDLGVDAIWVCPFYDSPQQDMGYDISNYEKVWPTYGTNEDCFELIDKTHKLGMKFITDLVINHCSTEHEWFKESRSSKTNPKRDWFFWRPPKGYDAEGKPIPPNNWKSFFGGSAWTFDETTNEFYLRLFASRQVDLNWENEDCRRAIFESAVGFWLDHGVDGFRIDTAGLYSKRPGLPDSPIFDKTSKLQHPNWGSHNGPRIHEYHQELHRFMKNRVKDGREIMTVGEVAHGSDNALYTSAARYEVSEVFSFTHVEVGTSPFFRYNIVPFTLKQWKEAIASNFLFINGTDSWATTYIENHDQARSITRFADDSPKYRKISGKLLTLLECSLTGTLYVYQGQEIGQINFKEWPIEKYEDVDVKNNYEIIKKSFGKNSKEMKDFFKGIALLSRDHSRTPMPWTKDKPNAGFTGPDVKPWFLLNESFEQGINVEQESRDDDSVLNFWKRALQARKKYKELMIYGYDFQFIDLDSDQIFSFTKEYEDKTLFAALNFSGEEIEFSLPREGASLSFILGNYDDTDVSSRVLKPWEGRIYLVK

Compound: O=C(C=Cc1ccccc1)NNC(=O)C(c1ccccc1)C1CCCC1 (centres unmarked) [Compound 6a, N′-(2-Cyclopentyl-2-phenylacetyl)cinnamohydrazide]
- IC50 [1]: 79.8 nM

Compound: O=C(C=Cc1ccccc1Br)NNC(=O)C(c1ccccc1)C1CCCC1 (centres unmarked) [Compound 6b, 3-(2-Bromophenyl)-N′-(2-cyclopentyl-2-phenylacetyl)acrylohydrazide]
- IC50 [1]: 104 nM
- IC50 (α-glucosidase inhibition) [1, 2]: moderate inhibition

Compound: O=C(C=Cc1cccc(Br)c1)NNC(=O)C(c1ccccc1)C1CCCC1 (centres unmarked) [Compound 6c, 3-(3-Bromophenyl)-N′-(2-cyclopentyl-2-phenylacetyl)acrylohydrazide]
- IC50 [1]: 46.8 nM

Compound: O=C(C=Cc1ccc(Br)cc1)NNC(=O)C(c1ccccc1)C1CCCC1 (centres unmarked) [Compound 6d, 3-(4-Bromophenyl)-N′-(2-cyclopentyl-2-phenylacetyl)acrylohydrazide]
- IC50 [1]: 64.8 nM

Compound: Cc1ccc(C=CC(=O)NNC(=O)C(c2ccccc2)C2CCCC2)cc1 (centres unmarked) [Compound 6e, N′-(2-Cyclopentyl-2-phenylacetyl)-3-(p-tolyl)acrylohydrazide]
- IC50 [1]: 233 nM
- IC50 (α-glucosidase inhibition) [1, 2]: moderate inhibition

- IC50 (α-glucosidase inhibition) [1, 2]: no inhibition effect
Compound: O=C(/C=C/c1ccc(F)cc1)NNC(=O)C(c1ccccc1)C1CCCC1 (centres unmarked) [Compound 6f, 3-(4-Fluoro)-N′-(2-cyclopentyl-2-phenylacetyl)acrylohydrazide]

Compound: O=C(C=Cc1cccc([N+](=O)[O-])c1)NNC(=O)C(c1ccccc1)C1CCCC1 (centres unmarked) [Compound 6g, 3-(3-Nitrophenyl)-N′-(2-cyclopentyl-2-phenylacetyl)acrylohydrazide]
- IC50 [1]: 28.5 nM

Compound: O=C(C=Cc1ccccc1)NNC(=O)C(c1cc(F)c(F)cc1F)C1CCCC1 (centres unmarked) [Compound 7a, N′-(2-cyclopentyl-2-(2,4,5-trifluorophenyl)acetyl)cinnamohydrazide]
- IC50 [1]: 85.2 nM

- IC50 [1, 3]: 14.5 nM
Compound: Cc1ccc(C=CC(=O)NNC(=O)C(c2cc(F)c(F)cc2F)C2CCCC2)cc1 (centres unmarked) [Compound 7b, N′-(2-Cyclopentyl-2-(2,4,5-trifluorophenyl)acetyl)-3-(p-tolyl)acrylohydrazide]

- IC50 [1, 3]: 49.3 nM
Compound: O=C(C=Cc1ccc(Br)cc1)NNC(=O)C(c1cc(F)c(F)cc1F)C1CCCC1 (centres unmarked) [Compound 7c, 3-(4-Bromophenyl)-N′-(2-cyclopentyl-2-(2,4,5-trifluorophenyl)acetyl)acrylohydrazide]

- IC50 [1, 3]: 18.9 nM
Compound: O=C(C=Cc1cccc(Cl)c1)NNC(=O)C(c1cc(F)c(F)cc1F)C1CCCC1 (centres unmarked) [Compound 7d, 3-(3-Chlorophenyl)-N′-(2-cyclopentyl-2-(2,4,5-trifluorophenyl)acetyl)acrylohydrazide]

- IC50 (α-glucosidase inhibition) [1, 2]: no effect on inhibition
Compound: COc1ccc(C=CC(=O)NNC(=O)C(c2cc(F)c(F)cc2F)C2CCCC2)cc1 (centres unmarked) [Compound 7e, N′-(2-Cyclopentyl-2-(2,4,5-trifluorophenyl)acetyl)-3-(4-methoxyphenyl)acrylohydrazide]

Compound: O=C(C=Cc1cccc(Br)c1)NNC(=O)C(c1cc(F)c(F)cc1F)C1CCCC1 (centres unmarked) [Compound 7f, 3-(3-Bromophenyl)-N′-(2-cyclopentyl-2-(2,4,5-trifluorophenyl)acetyl)acrylohydrazide]
- IC50 [1]: 33.2 nM

Compound: O=C(C=Cc1cccc([N+](=O)[O-])c1)NNC(=O)C(c1cc(F)c(F)cc1F)C1CCCC1 (centres unmarked) [Compound 7g, 3-(3-Nitrophenyl)-N′-(2-cyclopentyl-2-(2,4,5-trifluorophenyl)acetyl)acrylohydrazide]
- IC50 [1]: 54.8 nM

Compound: CC(C(=O)NN)c1ccc(-c2ccccc2)c(F)c1 (centres unmarked) [III]
- IC50 (α-glucosidase; [4]): 25200 nM

Compound: O=C(/C=C/c1ccc(O)cc1)N1CC(O)C(O)C1 (centres unmarked) [II]
- IC50 (α-glucosidase; deacetylsarmentamide derivative): 546000 nM

Compound: CC(C(=O)NNC(=O)c1cccc(Cl)c1)c1ccc(-c2ccccc2)c(F)c1 (centres unmarked) [IV]
- IC50 (α-glucosidase; [4]): 10400 nM

Compound: C=CCc1ccc(OC(=O)/C=C/c2ccc(O)cc2)c(-c2cc(CC=C)ccc2OC(=O)/C=C/c2ccc(O)cc2)c1 [I]
- Ki (α-glucosidase; Fig. 1): 2480 nM
- IC50 (α-glucosidase; cinnamic acid magnolol derivative): 5110 nM

Compound: O=[N+]([O-])c1ccc2cc(-c3ncc(-c4ccccc4F)o3)oc2c1 [VI]
- IC50 (α-glucosidase; [5]): 13400 nM

Compound: Fc1ccccc1/C=N/c1ccc2cn[nH]c2c1 [V]
- IC50 (α-glucosidase; [5]): 8510 nM
